Columns and labels:
[1] = molecular target: TrkA (Homo sapiens (Human), UniProt P04629); assay: Measurement of TrkA enzyme-inhibiting activity (LanthaScreen TR-FRET kinase assay); assay type: biochemical; conditions: final ATP 150 μM, read-out: TrkA inhibitory activity (IC50; μM)
Protocol: TrkA-inhibiting activity was measured according to the following method using LanthaScreen™ kinase assay reagents (Invitrogen; Fluorescein-Poly GT, LanthaScreen™ Tb-PY20 and TR-FRET Dilution Buffer), TrkA (Invitrogen), ATP (Sigma-Aldrich), a kinase reaction buffer (50 mM HEPES buffer (Sigma-Aldrich) (pH 7.5) containing 0.01% Brij35 (Sigma-Aldrich), 10 mM MgCl2 (Sigma-Aldrich) and 1 mM EGTA (Sigma-Aldrich)) and 0.5 M EDTA (pH 8.0) (Invitrogen).
The present compound was dissolved in dimethylsulfoxide (hereinafter abbreviated as DMSO) to prepare a 10 mM solution. The test compound at 10 mM was distributed into a 96-well plate and serially diluted with DMSO with the geometrical ratio of 3. The serial dilutions (DMSO solutions) were diluted with the kinase reaction buffer to 20-fold to prepare solutions of the present compound with 5-times concentrations (DMSO concentration: 5%). TrkA was diluted with the kinase reaction buffer to prepare a solution at 38.5 ng/mL (enzyme solution). Adenosine triphosphate (hereinafter abbreviated as ATP) was preliminarily diluted in distilled water to prepare a 10 mM solution which was then divided into containers and stored at −20° C. The 10 mM ATP solution and Fluorescein-Poly GT were diluted in the kinase reaction buffer to prepare a solution containing […] of ATP and 500 nM of Fluorescein-Poly GT (ATP-substrate solution). EDTA (0.5 M; pH 8.0) and LanthaScreen™ Tb-PY20 were diluted in the TR-FRET Dilution Buffer to prepare a solution containing 20 mM of EDTA and 4 nM of LanthaScreen™ Tb-PY20 (detection buffer).
The solutions of the present compound (5 μL/well) and the enzyme solution (10 μL/well) were added to a 96-half well assay plate and the plate was shaken at room temperature for 10 minutes on a plate shaker (IKA™ MTS2/4 digital microplate, IKA Japan K.K.). As a control and a blank, the kinase reaction buffer containing 5% DMSO (5 μL/well) was added in place of the solution of the present compound. As a blank, the kinase reaction buffer (10 μL/well) was added in the place of the enzyme solution. The ATP-substrate solution (10 μL/well) was then added to the plate to initiate kinase reaction and the plate was shaken in the dark at room temperature for 1 hour on the plate shaker (final concentration of TrkA: 15.4 ng/mL, final concentration of the substrate: 200 nM and final concentration of ATP: 150 μM). Kinase reaction was terminated by adding the detection buffer (25 μL/well) to the plate and the plate was shaken in the dark at room temperature for 30 minutes on the plate shaker. On an Analyst GT (Molecular Devices Japan, K.K.) the wells were irradiated with excitation light at 340 nm and the fluorescence intensities at 520 nm and 495 nm were measured. The fluorescence intensity at 520 nm for each well was divided by the fluorescence intensity at 495 nm to calculate the time resolved fluorescence resonance energy transfer (TR-FRET) ratio.
The inhibition rate (%) of the present compound was calculated according to the following Equation 1: Inhibition rate (%)={1−(AX−AB)/(AC−AB)×100 Equation 1
wherein AX: the TR-FRET ratio when the present compound is added;
AB: the TR-FRET of the blank; and
AC: the TR-FRET of the control.
The value for 50% inhibition by the present compound (IC50 value) was calculated from the inhibition curve based on the inhibition rate of the present compound at respective concentrations.

[2] = test system: NGF-induced vascular hyper permeability; assay: Suppression of rat NGF-induced vascular hyper permeability (in vivo test, Evans Blue); conditions: oral, 12 hours after administration, read-out: Rates of Suppression for Vascular Hyper Permeability (%)
Protocol: TrkA-inhibiting activity of the present compound was evaluated in vivo. The present compound dissolved in a medium was orally administered (adminstered volume: 5 mL/kg) to male CD(SD)IGS rats (7- to 9-week old, Charles River laboratories Japan, Inc.) shaved on the back. A medium was orally administered (adminstered volume: 5 mL/kg) to the control and normal groups. After 6 or 12 hours of administration, 3 μg/mL of a NGF (Mouse 2.5s, Natural, Invitrogen) solution prepared in 0.1% BSA (Sigma-Aldrich)-containing saline was intracutaneously administered (dose; 50 μL/site) at 3 sites on the back of animals under halothane anesthesia. For the normal group, 0.1% BSA-containing saline was intracutaneously administered (dose; 50 μL/site) at 3 sites on the back. Immediately after intracutaneous administration, 1% Evans Blue (Tokyo Chemical Industry Co., Ltd.) was administered intravenously from tail (adminstered volume: 3 mL/kg). After 10 minutes of administration, the animals were sacrificed by bleeding due to incision of the abdominal aorta. The sites of intracutaneous administration on the back (3 sites) were excised and the skin samples were respectively transferred to the wells in a 48-well plate (Asahi Glass Co., Ltd.). Formamide (0.8 mL/well) was added to the plate and the plate was sealed and incubated overnight at 60° C. The formamide extraction solution (200 μL) was transferred to a 96-well plate and the absorbance (wavelength: 620 nm) of Evans Blue extracted in formamide was measured on an absorbance microplate reader (SpectraMAX 190, Molecular Devices Japan, K.K.). Standard samples of Evans Blue dissolved in formamide (0, 0.78, 1.56, 3.13, 6.25, 12.5, 25 and 50 μg/mL) were measured at the same time for the absorbance (wavelength: 620 nm) to generate a calibration curve. Based on the calibration curve and the absorbances of samples, the concentrations of Evans Blue in the sample was calculated. The concentrations of Evans Blue for three skin samples collected from one aminal were averaged to obtain the vale for the animal. The rate of suppression for rat NGF-induced vascular hyper permeability of the present compound was calculated according to the following Equation 4: Suppression rate (%)=(1−(AX−AN)/(AC−AN)}×100 Equation 4
wherein AX: the concentration of Evans Blue of the test compound (an average value of 3 samples from one animal);
AN: the concentration of Evans Blue of the normal group (an average value of 3 samples from one animal);
AC: the concentration of Evans Blue of the control group (an average value of 3 samples from one animal).

Sequence of TrkA (P04629 33-796): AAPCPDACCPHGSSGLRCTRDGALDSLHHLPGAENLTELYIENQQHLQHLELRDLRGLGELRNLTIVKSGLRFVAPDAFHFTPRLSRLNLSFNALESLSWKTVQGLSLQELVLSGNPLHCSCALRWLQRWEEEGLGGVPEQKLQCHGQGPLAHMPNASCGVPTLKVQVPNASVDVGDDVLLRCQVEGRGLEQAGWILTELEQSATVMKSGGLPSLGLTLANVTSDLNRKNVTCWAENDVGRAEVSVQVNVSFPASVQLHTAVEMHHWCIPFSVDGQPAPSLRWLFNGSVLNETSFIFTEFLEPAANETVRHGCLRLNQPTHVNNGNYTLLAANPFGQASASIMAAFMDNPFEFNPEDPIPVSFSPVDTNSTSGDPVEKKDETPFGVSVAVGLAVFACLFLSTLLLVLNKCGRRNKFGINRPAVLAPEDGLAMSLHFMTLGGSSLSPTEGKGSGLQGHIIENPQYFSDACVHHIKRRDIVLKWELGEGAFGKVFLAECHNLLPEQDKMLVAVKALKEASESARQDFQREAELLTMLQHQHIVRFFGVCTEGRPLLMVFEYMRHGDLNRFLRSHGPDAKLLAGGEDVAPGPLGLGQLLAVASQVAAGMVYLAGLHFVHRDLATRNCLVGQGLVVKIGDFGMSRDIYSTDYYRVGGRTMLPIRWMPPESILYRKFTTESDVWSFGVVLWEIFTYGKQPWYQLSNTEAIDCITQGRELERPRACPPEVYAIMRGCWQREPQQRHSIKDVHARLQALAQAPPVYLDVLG

Structure (SMILES)	IC50 [1] [µM]	inhibition in vivo at 1 mg/kg [2] [%]
CCCNc1ncc(-c2ccc(Oc3ncc(NC(=O)Nc4cc(C(F)(F)F)ccc4Cl)cn3)cc2)s1 [Example 85-117, 1-[2-chloro-5-(trifluoromethyl)phenyl]-3-(2-{4-[2-(propylamino)-1,3-thiazol-5-yl]phenoxy}-5-pyrimidinyl)urea]	0.02	74
CCNc1ncc(-c2ccc(Oc3ncc(NC(=O)Nc4cc(C(F)(F)F)cnc4Oc4ccccc4)cn3)cc2)s1 [Example 48, 1-(2-{4-[2-(ethylamino)-1,3-thiazol-5-yl]phenoxy}-5-pyrimidinyl)-3-[2-phenoxy-5-(trifluoromethyl)-3-pyridinyl]urea]	0.12	71
CCNc1ncc(-c2ccc(Oc3ccc(NC(=O)Nc4cc(C(F)(F)F)cnc4-c4ccc(C)c(C)c4)cn3)cc2)s1 [Example 34, 1-[2-(3,4-dimethylphenyl)-5-(trifluoromethyl)-3-pyridinyl]-3-(6-{4-[2-(ethylamino)-1,3-thiazol-5-yl]phenoxy}-3-pyridinyl)urea]	0.18	75
O=C(Nc1cnc(Oc2ccc(-c3cnc(N4CCCC4=O)s3)cc2)nc1)Nc1cc(C(F)(F)F)cnc1-c1ccccc1 [Example 54, 1-(2-{4-[2-(2-oxo-1-pyrrolidinyl)-1,3-thiazol-5-yl]phenoxy}-5-pyrimidinyl)-3-[2-phenyl-5-(trifluoromethyl)-3-pyridinyl]urea]	0.04	88
CCNc1ncc(-c2ccc(Oc3ncc(NC(=O)Nc4cc(C(F)(F)F)cnc4-c4ccc(C)cc4)cn3)cc2)s1 [Example 23, 1-(2-{4-[2-(ethylamino)-1,3-thiazol-5-yl]phenoxy}-5-pyrimidinyl)-3-[2-(4-methylphenyl)-5-(trifluoromethyl)-3-pyridinyl]urea]	0.09	78
Cc1cccc(-c2ncc(C(F)(F)F)cc2NC(=O)Nc2cnc(Oc3ccc(-c4cnc(N5CCCC5=O)s4)cc3)nc2)c1 [Example 57, 1-[2-(3-methylphenyl)-5-(trifluoromethyl)-3-pyridinyl]-3-(2-{4-[2-(2-oxo-1-pyrrolidinyl)-1,3-thiazol-5-yl]phenoxy}-5-pyrimidinyl)urea]	0.03	78
